Measured values from PubChem BioAssay (NCI).
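Five concentrations, 48 hours, 96-well plates. At the TGI there is no net growth.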

Legend:
Test in all cases: growth of human tumour cells (NCI), 48 h
OVCAR-3 ovarian = test system: OVCAR-3 ovarian
UACC-257 melanoma = test system: UACC-257 melanoma
NCI-H226 lung = test system: NCI-H226 lung
MDA-N = test system: MDA-N
SF-295 CNS = test system: SF-295 CNS
SK-MEL-28 melanoma = test system: SK-MEL-28 melanoma
SNB-19 CNS = test system: SNB-19 CNS
RPMI-8226 leukemia = test system: RPMI-8226 leukemia
LOX IMVI melanoma = test system: LOX IMVI melanoma
K-562 leukemia = test system: K-562 leukemia
CAKI-1 renal = test system: CAKI-1 renal
U251 CNS = test system: U251 CNS
SR leukemia = test system: SR leukemia
SK-MEL-2 melanoma = test system: SK-MEL-2 melanoma
SN12C renal = test system: SN12C renal
MOLT-4 leukemia = test system: MOLT-4 leukemia
HL-60(TB) leukemia = test system: HL-60(TB) leukemia
HCT-116 colon = test system: HCT-116 colon
SK-OV-3 ovarian = test system: SK-OV-3 ovarian
HS 578T breast = test system: HS 578T breast
CCRF-CEM leukemia = test system: CCRF-CEM leukemia
A498 renal = test system: A498 renal
MCF7 breast = test system: MCF7 breast
DU-145 prostate = test system: DU-145 prostate
NCI-H522 lung = test system: NCI-H522 lung
OVCAR-8 ovarian = test system: OVCAR-8 ovarian
UO-31 renal = test system: UO-31 renal
NCI-H460 lung = test system: NCI-H460 lung
T-47D breast = test system: T-47D breast
ACHN renal = test system: ACHN renal
SK-MEL-5 melanoma = test system: SK-MEL-5 melanoma
IGROV1 ovarian = test system: IGROV1 ovarian
UACC-62 melanoma = test system: UACC-62 melanoma
MALME-3M melanoma = test system: MALME-3M melanoma
KM12 colon = test system: KM12 colon
HCC-2998 colon = test system: HCC-2998 colon
A549 NSCLC = test system: A549 NSCLC
COLO 205 colon = test system: COLO 205 colon
HT29 colon = test system: HT29 colon
NCI/ADR-RES ovarian = test system: NCI/ADR-RES ovarian
M14 melanoma = test system: M14 melanoma
SF-539 CNS = test system: SF-539 CNS
RXF 393 renal = test system: RXF 393 renal
OVCAR-4 ovarian = test system: OVCAR-4 ovarian
HOP-62 NSCLC = test system: HOP-62 NSCLC
SNB-75 CNS = test system: SNB-75 CNS
MDA-MB-435 = test system: MDA-MB-435
PC-3 prostate = test system: PC-3 prostate
HCT-15 colon = test system: HCT-15 colon
SW-620 colon = test system: SW-620 colon
NCI-H23 lung = test system: NCI-H23 lung
MDA-MB-231 breast = test system: MDA-MB-231 breast
SF-268 CNS = test system: SF-268 CNS
EKVX NSCLC = test system: EKVX NSCLC
HOP-92 NSCLC = test system: HOP-92 NSCLC
TK-10 renal = test system: TK-10 renal
786-0 renal = test system: 786-0 renal
OVCAR-5 ovarian = test system: OVCAR-5 ovarian
BT-549 breast = test system: BT-549 breast

Measured: TGI

CC(C)(C)[C@H]1CCC2(OCCO2)[C@](O)(CCCO)C1
> 100 µM: all assays above
